US20180153203A1, “(5R)-(ß-D-GLUCOPYRANOSYLOXY)-1,5-DIHYDRO-2H-PYRROL-2-ONE AS UMAMI MOLECULE” (priority 2015, published 2018)
Where two headings read alike, the source gives them in different places.

Tests used:
[1] = system: sensory panel of 5 to 8 trained persons; assay: Sensory panel tasting of umami intensity in water; assay type: in vivo, human; details: for Intense umami / No umami / Umami: water, count of tasters on 3-point umami scale; for threshold (umami) / threshold (umami), preferably: in water
Method: (§1) The sensory tests were performed in a sensory panel room at 20-25° C. The sensory panel consisted of 5 to 8 trained persons. The technical tasting was measured versus a control sample. Tasters were asked to judge the different products according to umami intensity on a 3-point scale (no umami, umami and intense umami). Additionally the tasters were asked to objectively describe the prototype with comments.
The stereoisomers have been tested to umami intensity as described in example 7.

[2] = system: sensory panel of 5 to 8 trained persons; assay: Sensory panel tasting in 0.2% sodium chloride and 0.04% sugar and 0.08% MSG; assay type: in vivo, human; details: 0.2% sodium chloride, count of tasters
Method: as §1

[3] = system: sensory panel of 5 to 8 trained persons; assay: Sensory panel tasting in 0.2% sodium chloride and 0.04% sugar and 0.015% IMP + GMP; assay type: in vivo, human; details: 0.2% sodium chloride, count of tasters
Method: as §1

[4] = system: sensory panel of 5 to 8 trained persons; assay: Sensory panel tasting in 0.2% sodium chloride and 0.04% sugar; assay type: in vivo, human; details: for Intense umami / No umami / Umami: 0.2% sodium chloride and 0.04% sugar, count of tasters
Method: as §1

sensory panel = assay: Sensory panel tasting of tomato soups; assay type: in vivo, human; details: tomato soup
Method: (5R)-(β-D-glucopyranosyloxy)-1,5-dihydro-2H-pyrrol-2-one was added at 500 mg/L (500 ppm) to the soups.

[5] = system: sensory panel of 5 to 8 trained persons; details: comparison value for MSG, no source or test given; cited from earlier work

For `O=C1C=C[C@H](O[C@@H]2O[C@H](CO)[C@@H](O)[C@H](O)[C@H]2O)N1` [beta-S, (5S)-(β-D-glucopyranosyloxy)-1,5-dihydro-2H-pyrrol-2-one], the Intense umami ([1]; C 100 mg/l) was 0, the No umami ([1]; C 100 mg/l) was 5 and the Umami ([1]; C 100 mg/l) was 0. It also gave an Intense umami ([1]; C 200 mg/l) of 0, a No umami ([1]; C 200 mg/l) of 5 and a Umami ([1]; C 200 mg/l) of 0. For the same compound, the Intense umami ([1]; C 500 mg/l) was 0, the No umami ([1]; C 500 mg/l) was 4 and the Umami ([1]; C 500 mg/l) was 1.
Work on “(5R)-(β-D-glucopyranosyloxy)-1,5-dihydro-2H-pyrrol-2-one” yielded an Intense umami ([2]; C 200 mg/l) of 5, a No umami ([2]; C 200 mg/l) of 0 and a Umami ([2]; C 200 mg/l) of 1. The Intense umami ([2]; C 500 mg/l) was 3, the No umami ([2]; C 500 mg/l) was 0 and the Umami ([2]; C 500 mg/l) was 3. For the same compound, the Intense umami ([3]; C 200 mg/l) was 0, the No umami ([3]; C 200 mg/l) was 4 and the Umami ([3]; C 200 mg/l) was 3. The Intense umami ([3]; C 500 mg/l) was 0, the No umami ([3]; C 500 mg/l) was 3 and the Umami ([3]; C 500 mg/l) was 4. The Intense umami ([4]; C 200 mg/l) was 0, the No umami ([4]; C 200 mg/l) was 3 and the Umami ([4]; C 200 mg/l) was 4. The Intense umami ([4]; C 500 mg/l) was 2, the No umami ([4]; C 500 mg/l) was 2 and the Umami ([4]; C 500 mg/l) was 3. For the same compound, the umami enhancing property ([4]; conclusion from Table 2, table 3 and table 4 (salt/sugar base, with MSG, with IMP + GMP)) was “shows the umami enhancing property”, the “threshold (umami)” value ([1]; corresponding to 250 mg/l) was 957 µmol/L and the “threshold (umami), preferably” value ([1]; corresponding to 500 mg/l) was 1914 µmol/L. For the same compound, the “threshold (umami)” value ([1]; from Table 1) was 250 mg/L, the “threshold (umami), preferably” value ([1]; from Table 1, 'preferably') was 500 mg/L and the Intense umami ([1]; C 100 mg/l) was 0. The No umami ([1]; C 100 mg/l) was 5, the Umami ([1]; C 100 mg/l) was 3 and the Intense umami ([1]; C 250 mg/l) was 1. It also gave a No umami ([1]; C 250 mg/l) of 3, a Umami ([1]; C 250 mg/l) of 4 and an Intense umami ([1]; C 500 mg/l) of 1. The No umami ([1]; C 500 mg/l) was 1, the Umami ([1]; C 500 mg/l) was 6 and the “tomato soups with and without the compound, perceived difference” value (sensory panel; 500 mg/L (500 ppm)) was “perceived as significantly different”. The “savory, umami taste of tomato soups” value (sensory panel; 500 ppm) was “increased significantly”.
Compound `O=C1C=C[C@H](O[C@H]2O[C@H](CO)[C@@H](O)[C@H](O)[C@H]2O)N1` [alpha-S, (5S)-(α-D-glucopyranosyloxy)-1,5-dihydro-2H-pyrrol-2-one] has an Intense umami ([1]; C 100 mg/l) of 0, a No umami ([1]; C 100 mg/l) of 5 and a Umami ([1]; C 100 mg/l) of 0. It also gave an Intense umami ([1]; C 250 mg/l) of 0, a No umami ([1]; C 250 mg/l) of 4 and a Umami ([1]; C 250 mg/l) of 1. The Intense umami ([1]; C 500 mg/l) was 0, the No umami ([1]; C 500 mg/l) was 5 and the Umami ([1]; C 500 mg/l) was 0.
Work on `O=C1C=C[C@@H](O[C@H]2O[C@H](CO)[C@@H](O)[C@H](O)[C@H]2O)N1` [alpha-R, (5R)-(α-D-glucopyranosyloxy)-1,5-dihydro-2H-pyrrol-2-one] yielded an Intense umami ([1]; C 200 mg/l) of 0, a No umami ([1]; C 200 mg/l) of 5 and a Umami ([1]; C 200 mg/l) of 0. For the same compound, the Intense umami ([1]; C 400 mg/l) was 0, the No umami ([1]; C 400 mg/l) was 5 and the Umami ([1]; C 400 mg/l) was 0. The Intense umami ([1]; C 800 mg/l) was 0, the No umami ([1]; C 800 mg/l) was 5 and the Umami ([1]; C 800 mg/l) was 0.
In the case of `N[C@@H](CCC(=O)O)C(=O)[O-].[Na+]` [Monosodium glutamat], the “threshold (umami)” value [5] is listed as 1500 µmol/L.
